What all share (format): in vivo, C57/BL6 mice
For assay [1], the system named is model of Parkinson's disease. The assay can be described thus: Behavioral balance beam score in the MPTP mouse model of Parkinson's disease. Particulars: for balance beam score after treatment: after 14 days intragastric treatment, model group 4-5 points; for Behavioral balance beam score, After treatment: after intragastric administration once a day for 14 days (compound 3 100 mg/kg; amantadine 40 mg/kg), model group 4.50 ± 0.53; for Behavioral balance beam score, After treatment / Behavioral balance beam score, After modeling: scale 0-5; for balance beam score as compared to the model group: after treatment, P≤0.05; for Behavioral balance beam score, After modeling: baseline 7 days after MPTP 25 mg/kg i.p. once daily, before treatment, mean ± SD, 8 mice per group. The procedure:
C57/BL6 mice, SPF grade, weighing 18-20 g, aged 6-8 weeks, male, purchased from Shanghai Slac Laboratory Animal Co., Ltd. Feeding environment: the temperature was kept at 22±1° C., and the humidity was kept at 65%-70%, in a 12/12 hour light/dark illumination cycle, with free access to water.
(1) 32 SPF-grade C57 mice aged 6-8 weeks were purchased and acclimatized for one week, and subsequently the modeling was started.
(§1) (2) MPTP (25 mg/kg) was intraperitoneally injected once a day for 7 consecutive days. The blank group was left untreated.
(§2) (3) After modeling, administration was started. […] The intragastric administration was performed once a day for 14 consecutive days.
(4) Behavioral test was first performed by balance beam test scoring.
A beam of 80 cm long and 2.5 cm wide was horizontally fixed at a height of 10 cm from the table top, and subsequently, the animals were allowed to walk on the beam.
The scoring scale was as follows: being able to jump on the balance beam and to walk freely without falling down: 0 points; being able to jump on the balance beam, but having a probability of tumbling down of less than 50% when walking on the balance beam: 1 point; being able to jump on the balance beam, but having a probability of tumbling down of greater than 50% when walking on the balance beam: 2 points; being able to jump on the balancing beam with the help of the normal side of the body, but failing to get help from the hind limb on the paralyzed side to move forward: 3 points; being unable to walk on the balance beam, but being able to sit on the beam: 4 points; falling off quickly when being placed on the beam: 5 points.

The subject of assay [2] is dopamine in striatum. Kind of assay: Content of dopamine in brain striatum by the kit method (ELISA) in the MPTP mouse model of Parkinson's disease. The procedure:
as §1, §2
After the mice were sacrificed quickly, the brains of the mice were taken and the cerebral palliums (CPs) of the mice were isolated. After exposing the brain striatum of the mice, the striatum was weighed and homogenized after adding PBS according to a proportion. The supernatant was isolated and detected for the content of dopamine in the brain striatum.
(1) Standard curve plotting: a microplate was taken, and reagents were added according to the table below.
(2) According to the number of samples, a proper amount of BCA working solution was prepared by uniformly mixing BCA reagent A and reagent B according to a volume ratio of 50:1.
(3) 160 μL of BCA working solution was added to each well.
(4) The microplate was shaken on a shaker for 30 s, left to stand at 37° C. for 30 min, and subsequently measured for absorbance at 562 nm. A standard curve was plotted with the absorbance value as an abscissa and the protein concentration (μg/μL) as an ordinate.
(5) 2 μL of test protein and 18 μL of PBS (10-fold dilution) were added to the microplate, 160 μL of BCA working solution was added, and the microplate was shaken on a shaker for 30 s, left to stand at 37° C. for 30 min, and subsequently measured for the absorbance at 562 nm.
(7) The experimental procedures and methods for the determination of dopamine in mice were referred to the kit instructions.
For orientation: An ELISA detects its analyte on a solid surface through an enzyme-linked reagent.

Assay [3] deals with tyrosine hydroxylase (TH) cells in substantia nigra (SubN). The assay can be described thus: Tyrosine hydroxylase (TH) cells in substantia nigra (SubN) by immunohistochemistry in the MPTP mouse model of Parkinson's disease. The following applies: for positive rate of TH cells in substantia nigra as compared to the model group: after treatment; for TH cell positive rate: substantia nigra, after 14 days intragastric treatment (compound 3 100 mg/kg; amantadine 40 mg/kg), blank 34.27 ± 5.08, model 12.74 ± 1.71. The procedure:
as §1, §2
The tissue should be cut using sharp knives and scissors. When cutting a tissue mass, the tissue was cut by pulling backwards from the root of the knife. […] The prepared tissue mass was fixed in 10% formalin for 48 h.
The fixed tissue was washed with running water to remove residual fixing liquid and impurities. The tissue mass was dehydrated in stages with different concentrations of ethanol (50%, 70%, 85%, 95%, up to pure alcohol (absolute ethanol)), each stage for 2 h. Dehydration must be performed in a capped flask to prevent high concentrations of ethanol from absorbing moisture in the air, resulting in reduced concentrations and incomplete dehydration. The material to be preserved can remain in 70% ethanol when being dehydrated with it. For long-term preservation, an equivalent amount of glycerol can be added.
The tissue mass was placed into a mixed solution of pure ethanol and xylene in an equivalent volume and left to stand for 2 h, subsequently placed into pure xylene and left to stand for two hours, and placed into pure xylene and left to stand for another two hours. After transparentizing, the effect of the previous dehydration of the material can be shown. If the dehydration is complete, the tissue is in a transparent state, and if there is a white cloud-shaped substance in the tissue, it means that the dehydration is incomplete and must be reworked, but the effect of rework is often not good. When xylene is used for transparentizing, it should be prevented from volatilizing and absorbing moisture in the air, and it should be kept in an anhydrous state.
The paraffin immersion must be performed in a thermostat. The tissue mass material was first immersed in a mixed solution of molten paraffin and xylene in equal volume for 1-2 h and subsequently immersed in 2 parts of molten paraffin solutions for 3 h each.
Embedding is the encapsulation of the paraffin-impregnated tissue mass with paraffin. Specifically, a paper box was first prepared, molten paraffin was added to the box, a tissue mass was quickly clamped by using a pair of pre-heated tweezers, and placed flat at the bottom of the paper box with a cut surface facing downwards. Subsequently, the paper box was slightly lifted up and placed flat in cold water, immediately pressed into the water after the paraffin on the surface was solidified for quickly cooling and solidifying the paraffin, and taken out after 30 min.
The paraffin block was placed in a refrigerator at −20° C. for at least 30 min before slicing to increase hardness. […]

SMILES strings stand for the structures.

Turning to `C=C(C)[C@@H]1CCC(C)=C[C@H]1c1c(OC(=O)[C@@H](N)CCCCN)cc(CCCCC)cc1OC(=O)[C@@H](N)CCCCN` [compound 3], in assay [1], the “balance beam score after treatment” value is recorded as 3-4 points; the “Behavioral balance beam score, After treatment” value was 3.50 ± 1.07; the “balance beam score as compared to the model group” value was “significant descending trend”; the “Behavioral balance beam score, After modeling” value is reported as 4.38 ± 0.52. The “DA content of dopamine in striatum after treatment” value in assay [2] (after 14 days intragastric treatment (compound 3 100 mg/kg; amantadine 40 mg/kg), blank 0.71 ± 0.16, model 0.30 ± 0.07) came out at 0.45 ± 0.10 ng/mg. Moreover, in assay [2] (after treatment, P≤0.01), the “dopamine content as compared to the model group” value is “increase”. The “content of dopamine compared with the blank group” value in assay [2] (after treatment, P≤0.05) is “significant decrease”. Also, in assay [3], the “positive rate of TH cells in substantia nigra as compared to the model group” value was “increase” and the “TH cell positive rate” value was found to be 14.59 ± 2.60%.

For `NC12CC3CC(CC(C3)C1)C2` [Positive drug, amantadine, reference compound], in assay [1], the “balance beam score after treatment” value is recorded as 2-3 points; the “Behavioral balance beam score, After treatment” value is listed as 2.13 ± 0.83; the “balance beam score as compared to the model group” value is reported as “significant descending trend”; the “Behavioral balance beam score, After modeling” value is on record as 4.75 ± 0.46. In assay [3], the “positive rate of TH cells in substantia nigra as compared to the model group” value is given as “significant increase” and the “TH cell positive rate” value is listed as 20.82 ± 5.77 %.

Source of the values: patent US20250051264A1, “CANNABIDIOL DERIVATIVE, PREPARATION METHOD THEREFOR AND APPLICATION THEREOF” (DEYI PHARMACEUTICAL LTD., priority 2021, published 2025).
